The NIST ThermoML archive (doi:10.1021/acs.jced.8b00005)
“And” between values parts separate entries of the source, which are not always exact repeats. Equal values may be shown once. Numbers after ± are expanded uncertainties.

Details: Liquid, Ebulliometric method (Recirculating still)

CC(=O)OC(C)C [1-methylethyl ethanoate]
Details | vapor or sublimation pressure
304.07 K | 10.57 ± 0.2 kPa
306.28 K | 11.58 ± 0.24 kPa
308.95 K | 13.35 ± 0.28 kPa
312.53 K | 15.79 ± 0.32 kPa
316.52 K | 19 ± 0.36 kPa
317.77 K | 20 ± 0.39 kPa
320.42 K | 22.45 ± 0.43 kPa
323.45 K | 25.6 ± 0.48 kPa
325.91 K | 28.24 ± 0.53 kPa
328.97 K | 31.94 ± 0.59 kPa
332.14 K | 36.19 ± 0.66 kPa
334.75 K | 39.98 ± 0.73 kPa and 40 ± 1 kPa
337.73 K | 44.85 ± 0.81 kPa
340.95 K | 50.51 ± 0.9 kPa
344.18 K | 56.66 ± 0.98 kPa
345.94 K | 60.03 ± 1.1 kPa and 60 ± 1 kPa
348.17 K | 65.32 ± 1.2 kPa
350.35 K | 70.47 ± 1.2 kPa
352.47 K | 75.52 ± 1.3 kPa
354.29 K | 79.97 ± 1.4 kPa and 80 ± 1 kPa
356.48 K | 85.89 ± 1.4 kPa
358.2 K | 90.5 ± 1.5 kPa
359.77 K | 95.13 ± 1.6 kPa
361.79 K | 101.26 ± 1.7 kPa and 101.3 ± 1.7 kPa

CCO [ethanol]
Details | vapor or sublimation pressure
307.52 K | 13.19 ± 0.3 kPa
309.89 K | 15.05 ± 0.33 kPa
312.21 K | 17.13 ± 0.37 kPa
315.24 K | 20 ± 0.41 kPa
318.42 K | 23.45 ± 0.47 kPa
320.31 K | 25.72 ± 0.52 kPa
322.13 K | 28.12 ± 0.57 kPa
324.1 K | 30.85 ± 0.61 kPa
325.96 K | 33.68 ± 0.67 kPa
327.52 K | 36.2 ± 0.73 kPa
329.57 K | 40 ± 1 kPa
329.58 K | 40 ± 0.79 kPa
331.49 K | 43.49 ± 0.85 kPa
333.45 K | 47.62 ± 0.93 kPa
335.16 K | 51.36 ± 0.99 kPa
336.76 K | 55.12 ± 1.1 kPa
338.72 K | 60.05 ± 1.1 kPa
338.73 K | 60 ± 1 kPa
340.19 K | 63.84 ± 1.2 kPa
341.5 K | 67.56 ± 1.3 kPa
343.06 K | 72.1 ± 1.3 kPa
344.37 K | 75.99 ± 1.4 kPa
345.69 K | 79.99 ± 1.5 kPa and 80 ± 2 kPa
347.1 K | 84.65 ± 1.6 kPa
348.51 K | 89.37 ± 1.6 kPa
349.83 K | 94.48 ± 1.8 kPa
351.55 K | 101.31 ± 1.9 kPa
351.65 K | 101.3 ± 1.8 kPa
